Legend:
[1] = tested on: M. persicae; test: Insecticidal % control against M. persicae, Colby synergy; assay type: in vivo, Myzus persicae
Procedure: (§1) Colby's method is used to determine if synergy exists for a combination of active ingredients. According to Colby, the expected action (E) of active ingredients A+B is:
(§2) [formula] • where E=expected efficacy, A and B=the efficacy of two active ingredients A and B at a given dose.
(§3) When the percentage of control observed (O) for the combination is greater than the expected (E) percentage, there is a synergistic effect. The synergism ratio (R) is calculated as the ratio between the […].
(§4) The insecticidal compounds A (Novaluron) and B (mix partner) are formulated as equivalent suspension concentrates to eliminate the effects of differing formulation inerts on biological activity. Efficacy of the insecticidal compositions is evaluated with reference to a scale of 0% to 100% in comparison with untreated control plots. 0 means no damage and 100 means complete destruction of the harmful pests.
(§5) Likewise following experimentations were done on other mixtures of novaluron on various pests, the result of which are summarized in the below tables: […]

[2] = tested on: Cotton Leafworm, S. littoralis; test: Insecticidal % control against Cotton Leafworm, S. littoralis, Colby synergy; assay type: in vivo, Spodoptera littoralis; conditions: 72 hours after treatment
Procedure: as §1, §2, §3, §4, §5

[3] = tested on: A. gossypii; test: Insecticidal % control against A. gossypii, Colby synergy; assay type: in vivo, Aphis gossypii; conditions: 96 hours after treatment
Procedure: as §1, §2, §3, §4, §5

[4] = tested on: Spodoptera littoralis larvae; test: Larval mortality of S. littoralis fed on treated castor bean leaves (tank mix novaluron + methoxyfenozide), Colby synergy; assay type: in vivo; conditions: Table 1, 0.01 mg a.i./L of each active
Procedure: as §1, §2, §3
A representative experiment was conducted to evaluate the insecticidal control of novaluron, a compound II, namely methoxyfenozide as well as a mixture of novaluron and methoxyfenozide against Spodoptera littoralis larvae.
(§6) The experiments were conducted by applying commercially available compositions of Novaluron (Rimon®) and methoxyfenozide (Runner®) alone or together. The compositions were diluted with water to the stated concentration of the active compound.
(§7) The following active ingredients and their mixtures were evaluated: • Novaluron: 0.01 mg a.i./liter • Methoxyfenozide: 0.01 mg a.i./liter • Novaluron+Methoxyfenozide 0.01 mg a.i./liter+0.01 mg a.i./liter
(§8) To evaluate the insecticidal control of novaluron and methoxyfenozide alone and in a binary mixture, castor bean leaves were treated with the above listed treatments. The treated leaves were exposed for 4-day feeding to 3rd-instar Spodoptera littoralis and the larvae were exposed for additional 4 days on untreated leaves. Larval mortality was determined at day 4 and 8. The treatments were composed of 3-5 replicates of 10 larvae each.

[5] = tested on: B. tabaci; test: Insecticidal % control against B. tabaci, Colby synergy; assay type: in vivo, Bemisia tabaci; conditions: Table 7, 72 hours after treatment
Procedure: as §1, §2, §3, §4, §5

[6] = tested on: S. frugiperda; test: Insecticidal % control against S. frugiperda, Colby synergy; assay type: in vivo, Spodoptera frugiperda; conditions: 120 hours after treatment
Procedure: as §1, §2, §3, §4, §5

[7] = tested on: F. occidentalis; test: Insecticidal % control against F. occidentalis, Colby synergy; assay type: in vivo, Frankliniella occidentalis
Procedure: as §1, §2, §3, §4, §5

[8] = tested on: T. absoluta; test: Insecticidal % control against T. absoluta, Colby synergy; assay type: in vivo, Tuta absoluta; conditions: 72 hours after treatment
Procedure: as §1, §2, §3, §4, §5

[9] = tested on: H. halys; test: Insecticidal % control against H. halys, Colby synergy; assay type: in vivo, Halyomorpha halys; conditions: Table 20 B; 144 hours after treatment; 50 ppm
Procedure: as §1, §2, §3, §4, §5

[10] = tested on: Spodoptera littoralis larvae; test: Larval weight gain (LWG) of S. littoralis on treated castor bean leaves; assay type: in vivo; conditions: Table 3
Procedure: as §6, §7, §8
Larval weight gain (LWG) was also measured in order to determine the effectiveness of the mixture of novaluron and methoxyfenozide when compared to the solo application of novaluron and methoxyfenozide.
Table 3 below summarizes the larval weight gain (LWG) (compared to the control), that was determined 4 days after treatment for the mixture of novaluron and methoxyfenozide.

[11] = tested on: T. urticae; test: Insecticidal % control against T. urticae, Colby synergy; assay type: in vivo, Tetranychus urticae
Procedure: as §1, §2, §3, §4, §5

## O=C(NC(=O)c1c(F)cccc1F)Nc1ccc(OC(F)(F)C(F)OC(F)(F)F)c(Cl)c1 (single isomer, unassigned; (+)) [Novaluron, (+)-I-[3-chloro-4-(1,1,2-trifluoro-2-trifluoromethoxyethoxy)phenyl]-3-(2,6-difluorobenzoyl) urea]
[1]; Table 6 A, 72 hours after treatment, 1 ppm
  Observed % control (O): 34%
[1]; Table 6 B, 7 days after treatment, 1 ppm
  Observed % control (O): 38.8%
[1]; Table 15 A, 48 hours after treatment, 50 ppm
  Observed % control (O): 14%
[1]; Table 15 B, 72 hours after treatment, 0.5 ppm
  Observed % control (O): 30%
[1]; Table 15 B, 72 hours after treatment, 50 ppm
  Observed % control (O): 44%
[1]; Table 17 A, 72 hours after treatment, 0.2 ppm
  Observed % control (O): 56%
[1]; Table 17 B, 7 days after treatment, 0.2 ppm
  Observed % control (O): 62.5%
[1]; Table 19 B, 7 days after treatment, 500 ppm
  Observed % control (O): 72.9%
[2]; Table 5 B, 0.02 ppm
  Observed % control (O): 0%
[2]; Table 8, 12 ppm
  Observed % control (O): 75%
[2]; Table 10 B, 0.02 ppm
  Observed % control (O): 30%
[2]; Table 11, 12 ppm
  Observed % control (O): 25%
[2]; Table 12, 12 ppm
  Observed % control (O): 75%
[2]; Table 13, 12 ppm
  Observed % control (O): 75%
[2]; Table 16, 0.04 ppm
  Observed % control (O): 73%
[2]; Table 20 A, 0.02 ppm
  Observed % control (O): 0%
[2]; Table 20 A, 0.2 ppm
  Observed % control (O): 5%
[2]; Table 21, 12 ppm
  Observed % control (O): 12.5%
[3]; Table 18 A, 10 ppm
  Observed % control (O): 16.2%
[3]; Table 19 A, 100 ppm
  Observed % control (O): 16.5%
[4]; 3rd-instar larvae, 4-day feeding on treated leaves, day 4
  Larval mortality, % (observed) 4 d: 3.5%
[4]; 4 days on treated then 4 days on untreated leaves, day 8
  Larval mortality, % (observed) 8 d: 20%
[5]; 7 ppm
  Observed % control (O): 23.1%
[5]; 35 ppm
  Observed % control (O): 25.2%
[6]; Table 5 A, 0.01 ppm
  Observed % control (O): 27%
[6]; Table 5 A, 0.05 ppm
  Observed % control (O): 40%
[6]; Table 9, 0.01 ppm
  Observed % control (O): 27%
[6]; Table 9, 0.025 ppm
  Observed % control (O): 30%
[6]; Table 10 A, 0.025 ppm
  Observed % control (O): 30%
[7]; Table 4 A, 48 hours after treatment, 5.3 ppm
  Observed % control (O): 14.0%
[7]; Table 4 B, 72 hours after treatment, 5.3 ppm
  Observed % control (O): 20.0%
[7]; Table 4 C, 7 days after treatment, 5.3 ppm
  Observed % control (O): 40.0%
[7]; Table 5 D, 48 hours after treatment, 3.5 ppm
  Observed % control (O): 4.0%
[7]; Table 5 E, 72 hours after treatment, 3.5 ppm
  Observed % control (O): 4.0%
[7]; Table 5 F, 7 days after treatment, 3.5 ppm
  Observed % control (O): 8.0%
[7]; Table 18 B, 72 hours after treatment, 5 ppm
  Observed % control (O): 10.0%
[7]; Table 18 B, 72 hours after treatment, 500 ppm
  Observed % control (O): 10.0%
[7]; Table 20 C, 48 hours after treatment, 1 ppm
  Observed % control (O): 16.0%
[7]; Table 20 D, 72 hours after treatment, 1 ppm
  Observed % control (O): 50.0%
[7]; Table 20 D, 72 hours after treatment, 100 ppm
  Observed % control (O): 50.0%
[7]; Table 20 E, 7 days after treatment, 1 ppm
  Observed % control (O): 74.0%
[7]; Table 20 E, 7 days after treatment, 100 ppm
  Observed % control (O): 84.0%
[8]; Table 2, 300 ppm
  Observed % control (O): 0%
[8]; Table 5 C, 0.1 ppm
  Observed % control (O): 16.7%
[8]; Table 5 C, 1 ppm
  Observed % control (O): 16.7%
[8]; Table 5 C, 300 ppm
  Observed % control (O): 16.7%
[9]
  Observed % control (O): 12.5%
[10]; 4 days after treatment, 0.01 mg a.i./L of each active
  LWG % rel. Control: 108 % rel. Control
[10]; applied alone
  effect on the weight gain of the Spodoptera littoralis larvae: neither novaluron nor methoxyfenozide alone have any effect on the weight gain
[11]; Table 6 C, 48 hours after treatment, 6 ppm
  Observed % control (O): 0%
[11]; Table 6 D, 72 hours after treatment, 6 ppm
  Observed % control (O): 0%
[11]; Table 6 E, 7 days after treatment, 6 ppm
  Observed % control (O): 6.1%
[11]; Table 14 A, 48 hours after treatment, 2.4 ppm
  Observed % control (O): 12%
[11]; Table 14 A, 48 hours after treatment, 120 ppm
  Observed % control (O): 8%
[11]; Table 14 B, 72 hours after treatment, 2.4 ppm
  Observed % control (O): 13%
[11]; Table 14 B, 72 hours after treatment, 120 ppm
  Observed % control (O): 10%
[11]; Table 14 C, 7 days after treatment, 2.4 ppm
  Observed % control (O): 15%
[11]; Table 14 C, 7 days after treatment, 120 ppm
  Observed % control (O): 17%
